Measured values reported in US20120058989A1, “ANTIBACTERIAL FLUOROQUINOLONE ANALOGS” (Achaogen, Inc., priority 2008, published 2012).

Assays:
Assay in all cases: MIC, CLSI broth microdilution
Assay type in all cases: cell-based
[1] = test system: A. baumannii AABA1009 (Fluoroquinolone-resistant); conditions: Table 2
Outline: (§1)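 CLSI M7-A7 broth microdilution; 2-fold serial dilutions in Mueller Hinton Broth, 1:1 with inoculum; final 5×10^5 CFU/mL; 35° C., 20 h, ambient air. QC strains E. coli ATCC 25922, P. aeruginosa ATCC 27853, S. aureus ATCC 29213.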

[2] = test system: A. baumannii AABA1020 (Fluoroquinolone-resistant); conditions: Table 3
Outline: as §1

[3] = test system: A. baumannii AABA1065 (Fluoroquinolone-susceptible)
Outline: as §1

[4] = test system: E. coli AECO001 (Fluoroquinolone susceptible, ATCC25922)
Outline: as §1

[5] = test system: E. coli AECO002 (Fluoroquinolone susceptible); conditions: Table 3
Outline: as §1

[6] = test system: E. coli AECO066 (Fluoroquinolone-resistant)
Outline: as §1

[7] = test system: E. coli AECO086 (Fluoroquinolone-resistant); conditions: Table 3
Outline: as §1

[8] = test system: P. aeruginosa APAE001 (Fluoroquinolone-susceptible, ATCC27853)
Outline: as §1

[9] = test system: P. aeruginosa APAE002 (Fluoroquinolone susceptible); conditions: Table 3
Outline: as §1

[10] = test system: P. aeruginosa APAE054 (Fluoroquinolone-resistant)
Outline: as §1

[11] = test system: S. aureus ASAU001 (Fluoroquinolone-susceptible, ATCC29213)
Outline: as §1

[12] = test system: S. aureus ASAU002 (Fluoroquinolone-susceptible, ATCC33591 (MRSA)); conditions: Table 3
Outline: as §1

[13] = test system: S. aureus ASAU1031 (Fluoroquinolone-resistant)
Outline: as §1

[14] = test system: S. aureus ASAU1033 (Fluoroquinolone-resistant); conditions: Table 3
Outline: as §1

[15] = test system: S. pneumoniae ASPN001 (Fluoroquinolone-susceptible, ATCC49619)
Outline: as §1

[16] = test system: S. pneumoniae ASPN002 (Fluoroquinolone-susceptible, ATCC10813); conditions: Table 3
Outline: as §1

[17] = test system: S. pneumoniae ASPN1018 (Fluoroquinolone-resistant); conditions: Table 3
Outline: as §1

[18] = test system: S. pneumoniae ASPN1027 (Fluoroquinolone-resistant)
Outline: as §1

| SMILES | MIC AABA 1009 [1] | MIC AABA1020 [2] | MIC AABA 1065 ([3]; Table 2) | MIC AABA 1065 ([3]; Table 3) | MIC AECO 001 ([4]; Table 2, 35° C., 20 hours) | MIC AECO 001 ([4]; Table 3) | MIC AECO002 [5] | MIC AECO 066 ([6]; Table 2) | MIC AECO 066 ([6]; Table 3) | MIC AECO086 [7] | MIC APAE 001 ([8]; Table 2) | MIC APAE 001 ([8]; Table 3) | MIC APAE002 [9] | MIC APAE 054 ([10]; Table 2) | MIC APAE 054 ([10]; Table 3) | MIC ASAU 001 ([11]; Table 2) | MIC ASAU 001 ([11]; Table 3) | MIC ASAU002 [12] | MIC ASAU 1031 ([13]; Table 2) | MIC ASAU 1031 ([13]; Table 3) | further results |
| --- | --- | --- | --- | --- | --- | --- | --- | --- | --- | --- | --- | --- | --- | --- | --- | --- | --- | --- | --- | --- | --- |
| N[C@@H]1C[C@@H]2CCCc3c(c(F)cc4c(=O)c(C(=O)O)cn(C5CC5)c34)N2C1.O=C(O)C(F)(F)F [7E/49, (7aS,9R)-9-Amino-4-cyclopropyl-12-fluoro-1-oxo-4,5,6,7,7a,8,9,10-octahydro-1H-pyrrolo[1′,2′:1,7]-azepino[2,3-h]quinoline-2-carboxylic acid trifluoroacetate] | C (MIC's of greater than 8.0 μg/mL = C) | D (MIC's of greater than 8.0 μg/mL = D) | C (MIC's of greater than 8.0 μg/mL = C) | D (MIC's of greater than 8.0 μg/mL = D) | C (MIC's of greater than 8.0 μg/mL = C) | D (MIC's of greater than 8.0 μg/mL = D) | D (MIC's of greater than 8.0 μg/mL = D) | C (MIC's of greater than 8.0 μg/mL = C) | D (MIC's of greater than 8.0 μg/mL = D) | D (MIC's of greater than 8.0 μg/mL = D) | C (MIC's of greater than 8.0 μg/mL = C) | D (MIC's of greater than 8.0 μg/mL = D) | D (MIC's of greater than 8.0 μg/mL = D) | C (MIC's of greater than 8.0 μg/mL = C) | D (MIC's of greater than 8.0 μg/mL = D) | B (MIC's of greater than 1.0 μg/mL to 8.0 μg/mL = B) | C (MIC's of 2.0 μg/mL to 8.0 μg/mL = C) | C (MIC's of 2.0 μg/mL to 8.0 μg/mL = C) | C (MIC's of greater than 8.0 μg/mL = C) | D (MIC's of greater than 8.0 μg/mL = D) | MIC ASAU1033 [14]: D (MIC's of greater than 8.0 μg/mL = D); MIC ASPN 001 ([15]; Table 2): C (MIC's of greater than 8.0 μg/mL = C); MIC ASPN 001 ([15]; Table 3): D (MIC's of greater than 8.0 μg/mL = D); MIC ASPN002 [16]: D (MIC's of greater than 8.0 μg/mL = D); MIC ASPN1018 [17]: C (MIC's of 2.0 μg/mL to 8.0 μg/mL = C); MIC ASPN 1027 ([18]; Table 2): C (MIC's of greater than 8.0 μg/mL = C); MIC ASPN 1027 ([18]; Table 3): D (MIC's of greater than 8.0 μg/mL = D) |
| NC1C[C@@H]2CC=Cc3c(c(F)cc4c(=O)c(C(=O)O)cn(C5CC5)c34)N2C1.O=C(O)C(F)(F)F (stereo partly drawn) [7E/50, (7aS,9)-9-Amino-4-cyclopropyl-12-fluoro-1-oxo-4,7,7a,8,9,10-hexahydro-1H-pyrrolo[1′,2′:1,7]-azepino[2,3-h]quinoline-2-carboxylic acid trifluoroacetate] | C (MIC's of greater than 8.0 μg/mL = C) | D (MIC's of greater than 8.0 μg/mL = D) | C (MIC's of greater than 8.0 μg/mL = C) | D (MIC's of greater than 8.0 μg/mL = D) | B (MIC's of greater than 1.0 μg/mL to 8.0 μg/mL = B) | C (MIC's of 2.0 μg/mL to 8.0 μg/mL = C) | D (MIC's of greater than 8.0 μg/mL = D) | C (MIC's of greater than 8.0 μg/mL = C) | D (MIC's of greater than 8.0 μg/mL = D) | D (MIC's of greater than 8.0 μg/mL = D) | C (MIC's of greater than 8.0 μg/mL = C) | D (MIC's of greater than 8.0 μg/mL = D) | D (MIC's of greater than 8.0 μg/mL = D) | C (MIC's of greater than 8.0 μg/mL = C) | D (MIC's of greater than 8.0 μg/mL = D) | C (MIC's of greater than 8.0 μg/mL = C) | D (MIC's of greater than 8.0 μg/mL = D) | C (MIC's of 2.0 μg/mL to 8.0 μg/mL = C) | C (MIC's of greater than 8.0 μg/mL = C) | D (MIC's of greater than 8.0 μg/mL = D) | MIC ASAU1033 [14]: D (MIC's of greater than 8.0 μg/mL = D); MIC ASPN 001 ([15]; Table 2): B (MIC's of greater than 1.0 μg/mL to 8.0 μg/mL = B); MIC ASPN 001 ([15]; Table 3): C (MIC's of 2.0 μg/mL to 8.0 μg/mL = C); MIC ASPN002 [16]: C (MIC's of 2.0 μg/mL to 8.0 μg/mL = C); MIC ASPN1018 [17]: C (MIC's of 2.0 μg/mL to 8.0 μg/mL = C); MIC ASPN 1027 ([18]; Table 2): B (MIC's of greater than 1.0 μg/mL to 8.0 μg/mL = B); MIC ASPN 1027 ([18]; Table 3): C (MIC's of 2.0 μg/mL to 8.0 μg/mL = C) |
| N[C@@H]1CCN2c3c(F)cc4c(=O)c(C(=O)O)cn(C5CC5)c4c3C=CC[C@H]12.O=C(O)C(F)(F)F [16/16, (7aR,8R)-8-Amino-4-cyclopropyl-12-fluoro-1-oxo-4,7,7a,8,9,10-hexahydro-1H-pyrrolo[1′,2′:1,7]azepino[2,3-h]quinoline-2-carboxylic acid trifluoroacetate] | B (MIC's of greater than 1.0 μg/mL to 8.0 μg/mL = B) | C (MIC's of 2.0 μg/mL to 8.0 μg/mL = C) | A (MIC's of 1.0 μg/mL or less = A) | A (MIC's of less than 1.0 = A) | A (MIC's of 1.0 μg/mL or less = A) | A (MIC's of less than 1.0 = A) | A (MIC's of less than 1.0 = A) | B (MIC's of greater than 1.0 μg/mL to 8.0 μg/mL = B) | C (MIC's of 2.0 μg/mL to 8.0 μg/mL = C) | B (MIC's of 1.0 μg/mL to 2.0 μg/mL = B) | A (MIC's of 1.0 μg/mL or less = A) | A (MIC's of less than 1.0 = A) | A (MIC's of less than 1.0 = A) | C (MIC's of greater than 8.0 μg/mL = C) | D (MIC's of greater than 8.0 μg/mL = D) | A (MIC's of 1.0 μg/mL or less = A) | A (MIC's of less than 1.0 = A) | A (MIC's of less than 1.0 = A) | A (MIC's of 1.0 μg/mL or less = A) | A (MIC's of less than 1.0 = A) | MIC ASAU1033 [14]: B (MIC's of 1.0 μg/mL to 2.0 μg/mL = B); MIC ASPN 001 ([15]; Table 2): A (MIC's of 1.0 μg/mL or less = A); MIC ASPN 001 ([15]; Table 3): A (MIC's of less than 1.0 = A); MIC ASPN002 [16]: A (MIC's of less than 1.0 = A); MIC ASPN1018 [17]: A (MIC's of less than 1.0 = A); MIC ASPN 1027 ([18]; Table 2): B (MIC's of greater than 1.0 μg/mL to 8.0 μg/mL = B); MIC ASPN 1027 ([18]; Table 3): A (MIC's of less than 1.0 = A) |
